The assay addresses T1, ASCT2 (alanine serine cysteine transporter 2) (Rattus norvegicus, UniProt D3ZJ25).
T1 sequence (D3ZJ25 1-555): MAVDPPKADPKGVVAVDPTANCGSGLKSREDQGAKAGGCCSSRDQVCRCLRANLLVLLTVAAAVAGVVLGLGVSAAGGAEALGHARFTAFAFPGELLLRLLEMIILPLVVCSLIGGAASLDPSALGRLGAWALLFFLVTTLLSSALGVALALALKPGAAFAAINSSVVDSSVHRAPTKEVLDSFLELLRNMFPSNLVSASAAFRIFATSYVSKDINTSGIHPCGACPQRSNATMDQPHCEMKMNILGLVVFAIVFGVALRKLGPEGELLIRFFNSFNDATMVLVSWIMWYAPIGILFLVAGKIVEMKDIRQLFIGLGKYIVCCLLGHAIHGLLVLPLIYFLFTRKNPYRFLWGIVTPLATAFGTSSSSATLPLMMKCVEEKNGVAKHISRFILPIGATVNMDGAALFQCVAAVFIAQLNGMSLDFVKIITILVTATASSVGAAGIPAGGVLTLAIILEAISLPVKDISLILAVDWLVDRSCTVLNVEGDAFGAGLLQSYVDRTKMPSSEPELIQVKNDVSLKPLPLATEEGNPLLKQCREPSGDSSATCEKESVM
Description: whole-cell voltage clamp: alanine-induced anion currents. Format: cell-based.

Usually Km stands for the substrate concentration at which the rate is half of its maximum.

In the case of `C[C@H](N)C(=O)O` [alanine], the Km turned out to be 160 ± 50 µM.

Source of the values: publication PMC3664696 (The Journal of General Physiology, 2013).
